In patent US11116746B2, “Use of rice bran oil distillate extract for prevention and mitigation of the effects of radiation” (Tocol Pharmaceuticals, LLC, priority 2015, dated 2021):

How the values were obtained:
[1] = system: H9c2 rat heart cardiomyocytes; test: Cell morphology of cardiomyocytes after H2O2 damage; assay type: cell-based; details: 5 μM pretreatment overnight; 100 and 200 μM H2O2 for 4 h
Experimental: H9c2 rat heart cardiomyocytes were treated with either vehicle control (DMSO, 0.1% v/v), 5 μM delta-tocotrienol or 5 μM TRFRB overnight. Cells were then exposed to 100 or 200 μM H2O2 for 4 h. Morphological changes were recorded under an inverted microscope. Pictures were taken at 10× magnification. Scale bar represents 400 μm.
We then investigated whether TRFRB can protect the various cells types from different tissue origins against H2O2 or IR induced oxidative damage.

[2] = system: H9c2 rat heart cardiomyocytes; test: Mitochondrial bioenergetics (oxygen consumption rate, XF96 analyzer) in H9c2 cells with or without H2O2; assay type: cell-based
Experimental: Oxygen consumption rate (OCR) was measured at 37° C. using an XF96 extracellular analyzer (Seahorse Bioscience) as previously described Pathak et al., Antioxid Redox Signal 2014, 20, 1436-1446. H9c2 rat heart cardiomyocytes cells were plated in 96 well Seahorse plates. The next day they were treated with either vehicle (DMSO, 0.1% v/v) or 5 μM of DT3 or 5 μM of TRFRB overnight. The cells were then treated with 50 or 100 μM H2O2 for 4 h at 37° C. The media in the wells were changed to unbuffered DMEM supplemented with 4 mM […] and incubated in a non-CO2 incubator for 1 h at 37° C. Three baseline measurements were acquired before injection of mitochondrial inhibitors or uncouplers. Readings were taken after sequential addition of oligomycin (10 μM), carbonylcyanide 4-(trifluoromethoxy)phenylhydrazone (FCCP, 10 μM) and rotenone/antimycin A (10 μM). Oxygen consumption rates were calculated by the Seahorse XF-96 software and represent an average of 3 measurements on 8 different wells. The rate of measured oxygen consumption was reported as pmol O2 consumed per minute per 10,000 cells.
Therefore, the next experiment assessed the effects of TRFRB and pure DT3 on cellular bioenergetics and mitochondrial respiration in the absence of any cellular stress. Intracellular mitochondrial function was examined by sequentially adding inhibitors of oxidative phosphorylation. Initially we took 3 measurements to determine the “basal respiration” of the cells. By injecting an inhibitor of mitochondrial ATP synthase (oligomycin), a decrease in oxygen consumption rate (OCR) was obtained and this decrease in OCR is termed as “ATP linked respiration”. In order to determine the maximal respiration potential of the cells, FCCP, an uncoupler, was used. Immediately following FCCP injection, oxygen consumption increased and cells reached to their maximum respiration. Mitochondrial “reserve respiratory capacity” was calculated by subtracting […]. Overnight (16 h) treatment of both DT3 and TRFRB increased basal oxygen consumption rate (OCR) as well as maximum OCR in H9c2 rat heart cardiomyocytes (FIG. 4A). […] 100 μM H2O2 treatment for 4 h completely halted the cellular respiration (FIGS. 4B and C).

[3] = system: HaCaT cells; test: Mitochondrial bioenergetics (mitochondrial uncoupling) in irradiated keratinocytes; assay type: cell-based, human; details: 5 μM pretreatment 16 h prior to 8 Gy IR; 48 h following IR; normalized to sham irradiated control
Experimental: In order to determine the radioprotective effects of TRFRB, human immortalized keratinocytes (HaCaT cells) were plated in 96 well Seahorse plates. The next day they were treated with either vehicle (DMSO, 0.1% v/v) or 5 μM of DT3 or 5 μM of TRFRB overnight. The Seahorse plates were either sham irradiated or irradiated with 8 Gy of γ-irradiation. Both plates were sequentially run in the XF96 extracellular analyzer as described above.
Secondly we utilized an immortalized human skin keratinocyte line (HaCaT cells) to evaluate the radioprotective effects of TRFRB. HaCaT cells were pretreated with DMSO vehicle or 5 μM of DT3 or TRFRB for 16 h prior to 8 Gy IR. Then the cellular bioenergetics and mitochondrial respiration in these cells were assayed at 48 h following IR exposure as described with H9c2 cells. The percent mitochondrial uncoupling is defined and calculated by determining the increase in the ratio of basal respiration to maximum respiration (OCR following FCCP treatment) and the data was normalized to the sham irradiated control group.

[4] = system: HaCaT cells; test: In vitro scratch assay (keratinocyte migration) after 8 Gy IR; assay type: cell-based, human; details: 5 μM given 4 h after IR exposure
Experimental: Human immortalized keratinocytes (HaCaT cells) were plated in 12 well culture plates and irradiated with 8 Gy or sham irradiated 24 h after plating. The cells were given either vehicle (DMSO, 0.1% v/v) or 5 μM of DT3 or 5 μM of TRFRB 4 hours following radiation. Culture media were replaced again at 36 h following radiation. At the 72 h time point, a scratch was made using a sterile micropipette tip in each well. This created an open area into which the keratinocytes migrated. Two areas of the scratch margins were imaged daily until scratches were closed. The area of the scratch remaining was measured on the images at five points per field, with two fixed fields averaged using Cell Analyzer 1.0 (BWTech, Iowa City, Iowa). Measurements were stopped when cells no longer made positive progress towards the scratch origin. See Ross et al., Exp Dermatol 2011, 20, 58-63.
This protection in the increased survival fraction was not statistically significant compared to 8 Gy IR alone group (FIG. 7). An in vitro scratch assay was utilized to evaluate the protective efficacy of TRFRB for keratinocyte migration function when the cells were treated with TRFRB after IR exposure.

[5] = single injection; cited from earlier work
[6] = system: TBHP induced lipid peroxidation in Wistar rat liver microsomes; test: TBARS assay: inhibition of TBHP induced microsomal lipid peroxidation; assay type: biochemical; details: microsomes pretreated 1 h, then TBHP 30 min; TRFRB expressed in μM of tocotrienols; read-out: IC50, concentration that reduced the amount of lipid peroxidation approximately 50%
Experimental: The antioxidant activity of TRFRB was assessed measuring the ability to prevent microsomal lipid peroxidation. For this a TBARS assay was performed using a modified version of the original method described by Buege and Aust, Microsomal lipid peroxidation. Methods Enzymol 1978, 52, 302-310. Briefly, rat liver microsomes (BD Bioscience) were suspended in PBS in glass tubes at final concentration of 1 mg/mL. To this, increasing concentrations of TRFRB dissolved in DMSO were added. DMSO alone was used as control. The final DMSO percentage was kept under 0.1%. Microsomes were subsequently incubated with the test compounds at 37° C. for one hour in a shaking water bath (100 rpm). After one hour, freshly made tert-Butyl hydroperoxide (TBHP) solution was added to microsomes at a final concentration of 200 μM and incubation was continued for another 30 mins. The reaction was terminated by addition of 20% trichloroacetic acid and tubes were placed on ice for 15 mins. Equal volume of 0.67% thiobarbituric acid in 0.05N NaOH was added and the final mixture was heated at 95° C. for 45 mins to allow the color to develop. Finally, the tubes were cooled on ice and centrifuged at 1000 rpm for 20 mins and the supernatant was read at 532 nm. The percent TBARS was calculated using a standard curve obtained using malondialdehyde (MDA). […]

Compound | protection of cell morphology against H2O2 treatment [1] | mitochondrial respiration following H2O2 injury ([2]; 5 μM for 16 h prior to 50 or 100 μM H2O2 for 4 h) | basal oxygen consumption rate (OCR) ([2]; 5 μM overnight (16 h), no cellular stress) | maximum OCR ([2]; 5 μM overnight (16 h), no cellular stress, after FCCP) | reserve respiratory capacity ([2]; calculated from maximum and basal OCR) | degree of mitochondrial uncoupling [3] | migration rates [4] | dose reduction factor (DRF) as a radiomitigator [5] | dose reduction factor (DRF) as a radioprotectant [5] | IC50 [6]
CC(C)=CCC/C(C)=C/CC/C(C)=C/CC[C@]1(C)CCc2cc(O)cc(C)c2O1 [DT3, δ-tocotrienol] | significantly protected the morphology | complete protection and restored the mitochondrial respiration | increased | increased | an increase in reserve respiratory capacity | this increase was reversed | partially restored | 1.1 | 1.27 | 
CC(C)=CCC/C(C)=C/CC/C(C)=C/CC[C@]1(C)CCc2cc(O)c(C)c(C)c2O1 [GT3, γ-tocotrienol] |  |  |  |  |  |  |  |  | 1.29 | 7 µM
